Experiments:
[1] = tested on: MGC-803 (human lung adenocarcinoma cell line); test: MTT cytotoxicity assay, MGC-803; type: cell-based; details: 48 h, no irradiation, mean ± SD of three experiments
Method: (§1) Cell Lines. The following in vitro human cancer cell lines were used: HCT-116 (Human colorectal cells), human KB (human nasopharyngeal carcinoma cells), MGC-803 (human lung adenocarcinoma cell line), HUVEC (Human Umbilical Vein Endothelial Cells). The cell lines (HCT-116, KB, MGC-803 and HUVEC) were purchased from the Cell Resource Center of Shanghai Institutes for Biological Sciences, the Academy of Sciences of China.
(§2) Cell Culture. HCT-116, human KB, MGC-803 and HUVEC cells were cultured in Dulbecco Modified Eagle Medium (DMEM; HyClone, Los Angeles, CA, USA), containing 4.0 mM L-Glutamine and 4500 mg/L Glucose, supplemented with 10% (v/v) foetalbovine serum (FBS; HyClone). The cell culturemedia was supplemented with penicillin/streptomycin at 100 Units/mL as adherent monolayers. Cell cultures were kept in a humidified incubator with 5% CO2 at 37 °C. Stock solutions were prepared in dimethyl sulfoxide (DMSO) and further dilutions were made with fresh culture medium. The concentration of DMSO in the final culture medium was 1%, which had no effect on the cell viability.
(§3) MTT Assay. Chemosensitivity was assessed using 3-(4,5-dimethylthiazol-2-yl)-2,5-diphenyl tetrazolium bromide (MTT) assay. Briefly, exponentially growing HCT-116 (3000–4000 cells/well), human KB (2000–3000 cells/well) and MGC 803 (2000–3000 cells/well) were seeded into 96-well plates and treated with indicated concentrations of samples for 48 h, and then […] of MTT (10 mg/mL) was added. After incubation for 4 h at 37 °C, the purple formazan crystals (i.e., a reduced form of MTT) generated from viable cells were dissolved by adding 100 μL DMSO in each well. The plates were swirled gently for 10 min to dissolve the precipitate, and quantified by measuring the optical density (OD) of the plates at a wavelength of 490 nm on plate reader (TECAN infinite M1000). Each concentration was repeated in three wells and the same experimental conditions were provided for all compounds and MTT analysis was repeated three times for each cell line.

[2] = tested on: CT-DNA; test: Spectrofluorimetric titration with CT-DNA (Stern-Volmer and binding constants); parameters: species or system calf; details: from F0/F-1 vs [DNA]; Tris-HCl buffer pH 7.2
Method: The DNA binding properties of compounds 8a–8j were evaluated based on their affinity or interaction with CT-DNA, measured with fluorescence spectrometric titration.
The calibration curve for determination of DNA was constructed by adding different proportion of DNA to a 2.0 × 10^−3 M compound 8j solution (pH = 7.2 Tris-HCl buffer). […] [Q] is the concentration of quencher. KSV is the Stern-Volmer constant and KQ is the bimolecular quenching rate constant. τ0 is the lifetime of the fluorophore in the absence of quencher and for most biomolecules τ0 is about 10^−8 s. The Stern-Volmer constant, KSV, for compound 8j has been determined from the plot of F0/F-1 vs. [DNA] (see Figure 2) and found to be 5.11 × 10^2 M^−1.
When small molecules binding independently to a set of equivalent sites on a macromolecule, the equilibrium between free and bound molecules is given by the equation [28]: (2) lg (F0/F-1) = lgKb + nlg[Q] where Kb and n are the binding constant and the number of binding sites, respectively, which could be got from the curve of lg(F0/F-1) vs. lg[Q]. The plot of lg(F0/F-1) vs. lg[DNA] has been shown in Figure 3 for compound 8j and indicates a simple binding process for the compound.
All fluorescence experiments were carried out on a Perkin-Elmer LS50B luminescence spectrometer. Fluorescence spectra were measured at rt using quartz cells of 1cm path. To the solutions of the drugs (2.0 × 10^−3 M) in 2.5 mL Tris-HCl buffer (pH = 7.2) were added aliquots of CT-DNA (2.0 × 10^−3 M) solution containing drugs (2.0 × 10^−3 M) in 2.5 mL Tris-HCl buffer (pH = 7.2). This operation ensured that the concentration of CT-DNA increased gradually from 0 to 360 µM, while the concentrations of drugs were kept constant. The mixing was achieved by stirring for 10min. Then, the corresponding fluorescence spectra were measured (ex 325 nm, ex/em 1.5 nm/1.5 nm). Binding constants were derived from the modified.

[3] = tested on: GelRed/CT-DNA; test: GelRed-DNA competitive binding (fluorescence quenching); parameters: species or system calf; details: I0/I vs [Q]; [GelRed]/[DNA] = 1:10, ex 350 nm, em 590 nm
[4] = tested on: CT-DNA; test: Circular dichroism spectra of CT-DNA; type: binding, calf; details: [compound]/[DNA] 1:10; 1.5 × 10^−4 M DNA, 1.5 × 10^−5 M compound
Method: CD absorption spectra of DNA were measured in TBS at a 100 nm/min scan rate in the wavelength range from 200 to 500 nm, with 1.5 × 10^−4 M DNA in the absence and presence of each compound of 1.5 × 10^−5 M, respectively. The CD signal of TBS was taken as the background and subtracted from the spectra. All the spectroscopic experiments were performed at 25 °C.

[5] = tested on: human KB (human nasopharyngeal carcinoma cells); test: MTT cytotoxicity assay, human KB; type: cell-based; details: Homo sapiens, light or radiation study, 48 h, no irradiation, mean ± SD of three experiments
Method: as §1, §2, §3

[6] = tested on: Bax, Bcl-2, cytochrome c, caspase-9 and caspase-3 in HCT-116 cells; test: Western blot of apoptosis-related proteins; type: cell-based, human
Text: To confirm the molecular mechanisms involved in the observed apoptosis alterations, we investigated the effects of compound 8j on the expression of proteins important for mitochondria mediated apoptosis. Apoptosis occurs through two different pathways, that is the intrinsic and extrinsic pathways. Intrinsic pathway involves mitochondria that play a pivotal role in apoptosis, whereas extrinsic pathway is mediated by cell death receptors such as Fas, TNF α after receiving the death signal. It is well-known that the intrinsic pathway is regulated by the Bcl-2 family of pro- and anti- apoptotic proteins, which stimulate the permeabilization of the mitochondrial outer membrane and cytochrome c released into the cytosol, promoting in the activation of the caspase cascade and the induction of apoptotic cell death. […] Then, the roles of important caspases (caspase-9 and caspase-3) were investigated. […] Thus, compound 8j induced HCT-116 cells apoptosis might decrease the activation of Bcl-2 and stimulate its downstream proteins which are associated with the mitochondria-dependent apoptotic pathway.
Figure 7 Effect of compound 8j on cytochrome c release and levels of Bcl-2, Bax, Caspase-9 and Caspase-3. Equal amount of protein was loaded on SDS-PAGE gel for western blot analysis as described in experimental section. β-actin was used as an internal control.

[7] = HCT-116, vs control cells, dose-dependent

Row | SMILES | IC50 [1] | KSV (Stern-Volmer constant) [2] | Kq (quenching constant of GelRed bound to DNA) [3] | Negative AI decrease (CD absorption peak of CT-DNA at 247 nm) [4] | Positive AI decrease (CD absorption peak of CT-DNA at 281 nm) [4] | IC50 ([1]; Homo sapiens, MGC-803, light or radiation study) | IC50 [5] | Cytochrome c release ([6]; HCT-116, cytosol) | Levels of caspase-3 protein ([6]; HCT-116, vs control) | Levels of caspase-9 protein ([6]; HCT-116, vs control) | Expression of Bcl-2 [6, 7] | Levels of Bax [6, 7]
1 | CCOP(=O)(OCC)C(NC(=O)CCOc1ccc2c(C)cc(=O)oc2c1)c1cccc(Br)c1 (stereo not shown) [Compound 8f, Diethyl(3-(4-methyl-2-oxo-2H-chromen-7-yloxy)propanamido)(3-bromophenyl)methylphospho-nate] | 74.2 ± 3.36 µM | 412 M⁻¹ | 1730 M⁻¹ | 26.9% | 23.1% |  |  |  |  |  |  | 
2 | CCOP(=O)(OCC)C(C)(NC(=O)CCOc1ccc2c(C)cc(=O)oc2c1)c1ccccc1 (stereo not shown) [Compound 8j, Diethyl 1-(3-(4-methyl-2-oxo-2H-chromen-7-yloxy)propanamido)-1-phenylethylphosphonate] |  | 511 M⁻¹ | 2350 M⁻¹ | 30.4% | 26.82% | 14.6 ± 1.11 µM | 0.08 µM | accumulation of cytochrome c in the cytosol | marked increase | marked increase | decrease | significant increase

Source: publication PMC6331810, “Novel Coumarin-Containing Aminophosphonatesas Antitumor Agent: Synthesis, Cytotoxicity, DNA-Binding and Apoptosis Evaluation” (Molecules, 2015)
